This passage reports IC50 results from ChEMBL document CHEMBL5634119, “Design and synthesis of 4th generation EGFR inhibitors against human triple (Del19/T790M/C797S) mutation” (Eur J Med Chem, 2023).

Experiment [1] is described as follows: Inhibition of wild type EGFR in mouse BAF3 cells assessed as reduction in cell proliferation incubated for 3 days by celltiter-glo assay. Format: cell-based. The following applies: BaF3, 72 h. A general note: In ATP-based viability assays light output follows the ATP content of the culture.
Experiment [2] in a line: Inhibition of EGFR del19/T790M/C797S triple mutant in mouse BAF3 cells assessed as reduction in cell proliferation incubated for 3 days by celltiter-glo assay. The conditions noted are these: BaF3, 72 h. Format: cell-based.
In experiment [3] the test system is NCI-H1975. In words: Antiproliferative activity against human NCI-H1975 cells harboring EGFR L858R/T790M mutant incubated for 72 hrs by SRB assay. The experiment is classed as functional, cell-based. The conditions noted are these: NCI-H1975, 72 h.
Experiment [4] concerns NCI-H1975. In words: Antiproliferative activity against human NCI-H1975 cells harboring EGFR L858R/T790M/C797S mutant incubated for 72 hrs by SRB assay. The following applies: NCI-H1975, 72 h. Format: functional, cell-based. On the technique in general: The SRB assay estimates cell density from bound dye.
The test system of a further experiment is A-431. Put plainly: Antiproliferative activity against human A-431 cells harboring wild type EGFR incubated for 72 hrs by SRB assay. Format: functional, cell-based. The following applies: A-431, 72 h.
In experiment [5] the target is Epidermal growth factor receptor (Homo sapiens, UniProt P00533). Put plainly: Inhibition of wild type EGFR (unknown origin) in presence of ATP by FRET assay.
Chain of Epidermal growth factor receptor (Homo sapiens, UniProt P00533) (P00533 whole entry): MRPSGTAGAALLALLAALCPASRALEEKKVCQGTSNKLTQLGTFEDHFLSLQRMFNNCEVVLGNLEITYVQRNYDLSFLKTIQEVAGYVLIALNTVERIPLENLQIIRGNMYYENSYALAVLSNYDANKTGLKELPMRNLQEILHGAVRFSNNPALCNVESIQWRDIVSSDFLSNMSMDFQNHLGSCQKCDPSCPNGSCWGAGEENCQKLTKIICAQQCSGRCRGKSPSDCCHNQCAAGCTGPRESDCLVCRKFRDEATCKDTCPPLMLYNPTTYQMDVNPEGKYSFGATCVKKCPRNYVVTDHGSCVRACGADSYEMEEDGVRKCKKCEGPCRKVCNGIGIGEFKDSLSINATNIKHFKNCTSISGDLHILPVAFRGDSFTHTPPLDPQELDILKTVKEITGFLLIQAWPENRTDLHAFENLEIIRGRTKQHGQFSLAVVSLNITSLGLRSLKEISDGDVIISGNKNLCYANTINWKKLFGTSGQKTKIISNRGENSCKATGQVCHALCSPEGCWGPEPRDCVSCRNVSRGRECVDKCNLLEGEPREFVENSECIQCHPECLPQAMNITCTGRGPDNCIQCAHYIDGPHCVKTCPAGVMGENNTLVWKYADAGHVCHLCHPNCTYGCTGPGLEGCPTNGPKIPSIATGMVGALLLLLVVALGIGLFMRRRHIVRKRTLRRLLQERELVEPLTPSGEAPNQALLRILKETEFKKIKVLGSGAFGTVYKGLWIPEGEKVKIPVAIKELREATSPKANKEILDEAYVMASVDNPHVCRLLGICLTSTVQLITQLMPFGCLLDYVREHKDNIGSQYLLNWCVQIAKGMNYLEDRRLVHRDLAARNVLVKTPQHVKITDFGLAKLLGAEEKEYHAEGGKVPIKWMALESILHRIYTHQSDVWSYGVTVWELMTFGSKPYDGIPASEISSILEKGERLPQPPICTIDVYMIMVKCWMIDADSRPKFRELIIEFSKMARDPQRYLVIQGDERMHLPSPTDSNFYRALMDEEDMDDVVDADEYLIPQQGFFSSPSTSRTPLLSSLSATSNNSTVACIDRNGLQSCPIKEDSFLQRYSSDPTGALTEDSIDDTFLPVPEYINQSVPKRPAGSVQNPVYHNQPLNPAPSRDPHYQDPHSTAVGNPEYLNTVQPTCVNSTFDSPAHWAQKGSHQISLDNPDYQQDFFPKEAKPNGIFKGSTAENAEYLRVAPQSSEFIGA
Experiment [6] has as its target Epidermal growth factor receptor (Homo sapiens, UniProt P00533, C797S/L858R/T790M). In words: Inhibition of EGFR L858R/T790M/C797S triple mutant (unknown origin) in presence of ATP by FRET assay.
In experiment [7] the target is Epidermal growth factor receptor (Homo sapiens, UniProt P00533, C797S/EX19DEL/T790M). In words: Inhibition of EGFR del19/T790M/C797S triple mutant (unknown origin) in presence of ATP by FRET assay.
Chain of Epidermal growth factor receptor (Homo sapiens, UniProt P00533, C797S/EX19DEL/T790M) (P00533 whole entry, looked up, stated change not applied): as the sequence (P00533 whole entry) above
For another experiment, the system named is HCC827. Put plainly: Antiproliferative activity against human HCC827 cells harboring EGFR Del19 mutant incubated for 72 hrs by SRB assay. The experiment is classed as functional, cell-based. The conditions noted are these: HCC827, 72 h.
The test system of the next experiment is PC-9. Put plainly: Antiproliferative activity against human PC-9 cells harboring EGFR Del19/T790M/C797S mutant incubated for 72 hrs by SRB assay. The experiment is classed as functional, cell-based. The following applies: PC-9, 72 h.
Experiment [8] is described as follows: Inhibition of ERK phosphorylation in human PC-9 cells harboring Del19/T790M/C797S mutant incubated for 6 hrs by Western blot analysis. Format: cell-based. The conditions noted are these: PC-9, 6 h.
The nature of experiment [9]: Inhibition of AKT phosphorylation in human PC-9 cells harboring Del19/T790M/C797S mutant incubated for 6 hrs by Western blot analysis. The experiment is classed as cell-based. The conditions noted are these: PC-9, 6 h. For orientation: In western blotting, separated proteins are transferred to a membrane and probed.
Experiment [10] is described as follows: Inhibition of ERK phosphorylation in human A-431 cells harboring wild type EGFR incubated for 6 hrs by Western blot analysis. The experiment is classed as cell-based. The following applies: A-431, 6 h.
Experiment [11] in a line: Inhibition of AKT phosphorylation in human A-431 cells harboring wild type EGFR incubated for 6 hrs by Western blot analysis. Format: cell-based. The conditions noted are these: A-431, 6 h.

Chain of Epidermal growth factor receptor (Homo sapiens, UniProt P00533, C797S/L858R/T790M) (P00533 25-1210 T790M/C797S/L858R limits assumed): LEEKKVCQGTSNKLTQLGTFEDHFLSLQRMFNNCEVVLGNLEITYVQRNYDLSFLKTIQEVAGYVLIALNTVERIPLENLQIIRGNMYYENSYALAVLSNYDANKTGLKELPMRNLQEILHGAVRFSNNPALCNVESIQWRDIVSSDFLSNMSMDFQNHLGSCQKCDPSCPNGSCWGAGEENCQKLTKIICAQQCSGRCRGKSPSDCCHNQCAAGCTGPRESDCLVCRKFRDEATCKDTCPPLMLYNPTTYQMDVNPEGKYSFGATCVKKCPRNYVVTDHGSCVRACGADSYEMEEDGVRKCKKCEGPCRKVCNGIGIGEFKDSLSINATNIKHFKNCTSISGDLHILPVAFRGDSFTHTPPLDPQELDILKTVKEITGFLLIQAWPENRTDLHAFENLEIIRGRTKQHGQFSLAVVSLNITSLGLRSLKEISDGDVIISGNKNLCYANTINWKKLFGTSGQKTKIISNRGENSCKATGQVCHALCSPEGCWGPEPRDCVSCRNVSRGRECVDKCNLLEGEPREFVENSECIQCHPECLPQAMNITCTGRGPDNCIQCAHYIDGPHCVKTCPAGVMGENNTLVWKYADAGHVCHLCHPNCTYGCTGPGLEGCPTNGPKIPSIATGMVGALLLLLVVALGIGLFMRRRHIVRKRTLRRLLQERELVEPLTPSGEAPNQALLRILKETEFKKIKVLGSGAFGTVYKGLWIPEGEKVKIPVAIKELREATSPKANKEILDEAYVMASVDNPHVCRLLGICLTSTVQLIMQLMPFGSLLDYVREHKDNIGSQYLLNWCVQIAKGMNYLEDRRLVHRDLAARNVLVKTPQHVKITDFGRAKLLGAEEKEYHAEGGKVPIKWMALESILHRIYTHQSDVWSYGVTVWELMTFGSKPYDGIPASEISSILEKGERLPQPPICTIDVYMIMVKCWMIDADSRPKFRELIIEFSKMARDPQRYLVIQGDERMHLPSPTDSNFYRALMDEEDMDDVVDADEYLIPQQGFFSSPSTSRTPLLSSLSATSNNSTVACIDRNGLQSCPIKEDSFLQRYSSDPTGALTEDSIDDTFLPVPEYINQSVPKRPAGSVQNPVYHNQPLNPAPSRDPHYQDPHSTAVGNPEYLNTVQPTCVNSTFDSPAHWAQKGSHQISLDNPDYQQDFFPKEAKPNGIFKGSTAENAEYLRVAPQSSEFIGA

`CCCN1CCN(C2CCN(c3ccc(Nc4nc(Nc5ccccc5N(C)S(C)(=O)=O)c5cc[nH]c5n4)cc3F)CC2)CC1`: the IC50 in experiment [1] amounted to 0.754 µM; in experiment [2] it was 0.0842 µM.
Turning to `CC(C)N1CCN(C2CCN(c3ccc(Nc4nc(Nc5ccccc5N(C)S(C)(=O)=O)c5cc[nH]c5n4)cc3F)CC2)CC1`, the IC50 in [1] stood at 0.62 µM; in [2] it was 0.0824 µM.
On to `CN1CCN(c2ccc(Nc3nc(Nc4ccccc4NS(C)(=O)=O)c4cc[nH]c4n3)cc2F)CC1`, for which the figures for the IC50 in experiment [1] and in experiment [2] were 2.64 µM and 0.125 µM, respectively.
On to `COc1cc(N2CCN(C)CC2)ccc1Nc1nc(Nc2ccccc2N(C)S(C)(=O)=O)c2cc[nH]c2n1`, for which the IC50 came out at 3.17 µM in experiment [1] and 0.329 µM in experiment [2].
For the compound `CC(C)N(c1ccccc1Nc1nc(Nc2ccc(N3CCN(C)CC3)c(F)c2)nc2[nH]ccc12)S(C)(=O)=O`, the IC50 in experiment [1] worked out at 0.307 µM; in experiment [2], 0.0712 µM.
For `CC(C)N1CCN(c2ccc(Nc3nc(Nc4ccccc4N(C)S(C)(=O)=O)c4cc[nH]c4n3)cc2F)CC1`, the IC50 in experiment [1] was found to be 0.67 µM; in [2] it was 0.157 µM.
As for `CN1CCN(c2ccc(Nc3nc(Nc4ccccc4N(C)S(C)(=O)=O)c4cc[nH]c4n3)cc2)CC1`, the IC50 is 0.12 µM in [1] and 0.0284 µM in experiment [2].
For `CN(c1ccccc1Nc1nc(Nc2ccc(N3CCN(C4CC4)CC3)c(F)c2)nc2[nH]ccc12)S(C)(=O)=O`, in that order: 0.79 µM and 0.383 µM.
In the case of `CN1CCN(c2ccc(Nc3nc(Nc4ccccc4N(C)S(=O)(=O)C4CC4)c4cc[nH]c4n3)cc2F)CC1`, the IC50 in [1] was 0.214 µM; in experiment [2], 0.0296 µM.
With `CN1CCN(c2ccc(Nc3nc(Nc4ccccc4N(C)S(C)(=O)=O)c4cc[nH]c4n3)cc2F)CC1`, the IC50 in the experiment with NCI-H1975 [3] was 0.185 µM; in experiment [1] it was 0.267 µM; in [2] it was 0.0225 µM; in the experiment with NCI-H1975 [4] it was 0.289 µM; with A-431, 0.263 µM; in experiment [5], 1.53 µM. Also, the IC50 is 0.0202 µM in experiment [6], 0.004 µM in experiment [7], 0.23 µM with HCC827 and 0.208 µM with PC-9.
As to `CN(c1ccccc1Nc1nc(Nc2ccc(N3CCCCC3)cc2)nc2[nH]ccc12)S(C)(=O)=O`, the IC50 was 1.24 µM in [1] and 0.566 µM in experiment [2].
The matching figures for `CCCN1CCN(c2ccc(Nc3nc(Nc4ccccc4N(C)S(C)(=O)=O)c4cc[nH]c4n3)cc2F)CC1`: 0.687 µM and 0.142 µM.
On to `Cc1cc(Nc2nc(Nc3ccccc3N(C)S(C)(=O)=O)c3cc[nH]c3n2)ccc1N1CCN(C)CC1`, for which the IC50 in experiment [1] was 0.0417 µM; in experiment [2], 0.0308 µM.
With `C=CC(=O)Nc1cc(Nc2nccc(-c3cn(C)c4ccccc34)n2)c(OC)cc1N(C)CCN(C)C` [OSIMERTINIB], the values for the IC50 in experiment [1] and in experiment [2] were 0.0135 µM and 1.24 µM, respectively.
`CCN(c1ccccc1Nc1nc(Nc2ccc(N3CCN(C)CC3)c(F)c2)nc2[nH]ccc12)S(C)(=O)=O`: the IC50 in experiment [1] is 0.203 µM; in experiment [2], 0.0366 µM.
With `CN(c1ccccc1Nc1nc(Nc2ccc(N3CCCCC3)c(F)c2)nc2[nH]ccc12)S(C)(=O)=O`, the IC50 worked out at 0.739 µM in [1] and 0.741 µM in experiment [2].
`CN(c1ccccc1Nc1nc(Nc2ccc(N3CCN(C(=O)OC(C)(C)C)CC3)c(F)c2)nc2[nH]ccc12)S(C)(=O)=O`: the IC50 in experiment [1] is 2.4 µM; in [2] it was 0.426 µM.
In the case of `CN1CCN(c2ccc(Nc3nc(Nc4ccccc4N(C)S(C)(=O)=O)c4cc[nH]c4n3)c(F)c2)CC1`, the IC50 stood at 0.202 µM in experiment [1] and 0.157 µM in experiment [2].
Turning to `CN1CCN(c2ccc(Nc3nc(Nc4ccccc4N(C4CC4)S(C)(=O)=O)c4cc[nH]c4n3)cc2F)CC1`, the IC50 in experiment [1] is 0.273 µM; in experiment [2] it was 0.0559 µM.
Turning to `CC(C)S(=O)(=O)N(C)c1ccccc1Nc1nc(Nc2ccc(N3CCN(C)CC3)c(F)c2)nc2[nH]ccc12`, the figures for the IC50 in [1] and in experiment [2] were 0.185 µM and 0.049 µM, respectively.
As for `CCS(=O)(=O)N(C)c1ccccc1Nc1nc(Nc2ccc(N3CCN(C)CC3)c(F)c2)nc2[nH]ccc12`, the concentration for half-maximal inhibition (IC50) was found to be 0.238 µM in experiment [1] and 0.0164 µM in [2].
Turning to `COc1cc(N2CCC(N3CCN(C)CC3)CC2)ccc1Nc1ncc(Cl)c(Nc2ccccc2P(C)(C)=O)n1` [BRIGATINIB], the IC50 turned out to be 3.73 µM in [8]; 0.38 µM with NCI-H1975 [3]; 0.782 µM in [1]; 0.984 µM in experiment [9]; 0.227 µM in experiment [2]; 5.83 µM in experiment [10]. Besides, the IC50 with NCI-H1975 [4] was determined as 1.13 µM; in the experiment with A-431 it was 0.54 µM; with HCC827, 0.282 µM; in the experiment with PC-9, 0.838 µM; in [11] it was 3.33 µM.
Regarding `CN1CCN(c2ccc(Nc3nc(Nc4ccccc4N(C)S(C)(=O)=O)c4cc[nH]c4n3)cc2Cl)CC1`, the IC50 was 0.0474 µM in experiment [1] and 0.0538 µM in experiment [2].
In the case of `CN1CCN(C2CCN(c3ccc(Nc4nc(Nc5ccccc5N(C)S(C)(=O)=O)c5cc[nH]c5n4)cc3F)CC2)CC1`, the IC50 stood at 0.211 µM with NCI-H1975 [3]; 0.254 µM in experiment [1]; 0.0114 µM in experiment [2]; 0.196 µM in the experiment with NCI-H1975 [4]; 0.317 µM in the experiment with A-431; 4.58 µM in [5]. The IC50 in [6] was found to be 0.0049 µM; in experiment [7] it was 0.004 µM; in the experiment with HCC827 it was 0.37 µM; in the experiment on PC-9 it was 0.263 µM.
For the compound `CN(c1ccccc1Nc1nc(Nc2ccc(N3CCC(N4CCN(C5CC5)CC4)CC3)c(F)c2)nc2[nH]ccc12)S(C)(=O)=O`, the IC50 came to 0.815 µM in [1] and 0.213 µM in experiment [2].
With `COc1cc(Nc2nc(Nc3ccccc3N(C)S(C)(=O)=O)c3cc[nH]c3n2)ccc1N1CCN(C)CC1`, the IC50 in experiment [1] came out at 0.0414 µM; in experiment [2] it was 0.0367 µM.

For orientation: IC50 means the point on the concentration scale where inhibition reaches its midpoint.
